Like-named read-outs stand apart in the source and are kept apart here.
Assays:
[1] = system: Staphylococcus aureus (S. aureus); assay: Bacterial growth assay (turbidity, OD600); type: cell-based; settings: 100 µg/mL, 1-8 h
Description: (§1) The antibacterial effect of FKFL-G2 was evaluated using Escherichia coli (E. coli) DH5α, which is kanamycin-resistant, and Staphylococcus aureus (S. aureus). Bacterial growth was estimated based on turbidity measurements, a commonly used method of evaluating the density of bacteria grown on a solution medium. In this process, E. coli and S. aureus bacteria were thawed, cultured overnight, and subcultured. […] The optical density (OD) of each sample was measured at a wavelength of 600 nm using an ultraviolet–visible spectrophotometer (OPTIZEN QX, Optizen, Daejeon, Republic of Korea).

E. coli [2] = assay: Biofilm formation assay (crystal violet); type: cell-based, Escherichia coli; settings: 8 h at 37 °C, absorbance at 550 nm, n = 4
Description: E. coli cells were thawed, cultured overnight, and then subcultured. […] To prevent subsequent background staining, the culture medium was removed and washed three times with distilled water. Then, 125 μL of crystal violet solution (0.1%, w/v) was added to the cells, which were incubated for another 10 min. Thereafter, the solution was removed, and the cells were washed with water and dried overnight. Lastly, 125 µL of a 30% acetic acid solution was added to the cells, which were incubated for 10 min to dissolve the film. The absorbance of the cells was then measured using a microplate reader (VERSAmax, Molecular Devices, Sunnyvale, CA, USA) at a wavelength of 550 nm.

[3] = system: Escherichia coli (E. coli) DH5α, kanamycin-resistant; assay: Bacterial growth assay (turbidity, OD600); type: cell-based; settings: 100 µg/mL, 1-8 h
Description: as §1

E. coli [4] = assay: Membrane permeabilization assay (NPN); type: cell-based, Escherichia coli; settings: 100 µL of 1 mg/mL in 1 mL, 30 min, HEPES pH 7.8, ex 350 / em 429 nm, n = 3
Description: (§2) To evaluate the ability of FKFL-G2 to disrupt bacterial cell membranes, the membrane permeabilization assay was performed using N-phenyl-1-naphthylamine (NPN). E. coli and S. aureus bacteria were thawed and cultured overnight at 37 °C while being shaken at 180 rpm. After the absorbance of the bacterial solutions reached an OD600 of 1.0, the bacterial cells were harvested via centrifugation at 3500 rpm for 10 min. The bacterial pellet was washed twice with 4-(2-hydroxyethyl)-1-piperazineethanesulfonic acid (HEPES) buffer (pH 7.8). The bacterial pellets were then subjected to another round of centrifugation at 3500 rpm for 10 min and resuspended in 1 mL of HEPES (pH 7.8) to make bacterial solutions. […] Triton X-100, a well-known surfactant with a high capacity to destroy cell membranes, was used as a control. The fluorescence of each solution was measured using a fluorometer (LS45 Fluorescence Spectrometer, PerkinElmer, Waltham, MA, USA) at an excitation wavelength of 350 nm and emission wavelength of 429 nm.

S. aureus [5] = assay: Membrane permeabilization assay (NPN); type: cell-based, Staphylococcus aureus; settings: 100 µL of 1 mg/mL in 1 mL, 30 min, HEPES pH 7.8, ex 350 / em 429 nm, n = 3
Description: as §2

[6] = Critical aggregation concentration (CAC), Nile red fluorescence; type: physicochemical; settings: ex 550 nm, intensity at 650 nm, FKFL-G2 0.001 to 0.9 mg/mL
Description: In order to confirm whether FKFL-G2 forms an aggregate by itself, the CAC was measured by fluorescence spectroscopy using Nile red. A 1 mL solution of FKFL-G2 with a concentration range of 0.001 to 0.9 mg/mL was combined with 5 µL of Nile red (1 mM in MeOH) and mixed by vortexing. Subsequently, fluorescence was measured at wavelengths of 550 nm for excitation and 560–760 nm for emission using a fluorometer (LS45, Fluorescence Spectrometer, PerkinElmer), and the fluorescence intensity at 650 nm was analyzed to measure the values of the nanoparticles.

[7] = Zeta potential and mean diameter (Zetasizer Nano ZS, DLS); type: physicochemical; settings: for Diameter / Polydispersity (PDI): DLS at RT, repeated three times; for Zeta Potential: room temperature, triplicate
Description: The surface charge and the mean diameter of the FKFL-G2 were measured in triplicate and evaluated at various concentrations at room temperature using a Zetasizer Nano ZS (Malvern Panalytical, Malvern, UK).

NIH3T3 cells = system: NIH3T3 cells
Description: NIH3T3 cells were used to evaluate the cytotoxicity of the FKFL-G2 dendrimer. A total of 1.8 × 10^4 cells/well were seeded in a 96-well plate and incubated in 90 µL of Dulbecco’s modified Eagle’s medium, containing 10% (v/v) fetal bovine serum and 1% (w/v) penicillin/streptomycin, for 16 h at 37 °C in a humidified atmosphere containing 5% CO2. […] Each sample in the experimental group was treated with 10 µL of the FKFL-G2 dendrimer at the following concentrations: 12.5, 25, 50, 100, and 200 µg/mL. After 24 h of incubation, 10 µL of EZ-Cytox reagent (WST-8) was added to each well (except for that used as the negative control), which were incubated for a subsequent 2 h. Lastly, the absorbance of the wells measured a data wavelength of 450 nm via a colorimetric enzyme-linked immunosorbent assay (VERSAmax, Molecular Devices, Sunnyvale, CA, USA).

E. coli [8] = assay: Colony-forming unit assay; type: cell-based, Escherichia coli; settings: 100 µg/mL, 24 h growth on agar plate, n = 3
Description: (§3) A colony-forming unit assay was performed to determine the effect of FKFL-G2 on bacterial colony formation. This process followed the same steps as the turbidity test in Section 2.5. The OD of the cells was measured after 24 h of growth. The cell solution was diluted by a factor of 10^7; after which, 100 µL of the diluted solution was sprayed onto an agar plate and incubated in a shaking incubator for 24 h at 37 °C. The number of colonies produced was then observed.

S. aureus [9] = assay: Colony-forming unit assay; type: cell-based, Staphylococcus aureus; settings: 100 µg/mL, 24 h growth on agar plate, n = 3
Description: as §3

E. coli [10] = assay: Scanning electron microscopy of treated bacteria; type: cell-based, Escherichia coli; settings: 8 h at 37 °C
Description: (§4) Bacterial morphology with untreated or Amp, Kan, G2, and FKFL-G2-treated was observed using field emission scanning electron microscopy (FE-SEM; S-4800, Hitachi, Tokyo, Japan). E. coli and S. aureus bacteria were cultured and incubated with experimental and control samples for 8 h at 37 °C while being shaken at 225 rpm. Thereafter, 50 µL of the bacterial solution of each culture was placed on a silicon wafer and dried at room temperature. The bacteria-containing wafers were placed on a 24-well plate and treated with 4% paraformaldehyde for 30 min. The surfaces were then washed using various concentrations of ethanol solution 0%, 25%, 50%, 75%, and 99.9%. The washed wafers were coated with platinum for 90 s; after which, and the appearance of bacteria was observed using FE-SEM (S-4800, Hitachi, Tokyo, Japan). The shapes of treated bacterial cells were compared with those of nontreated corresponding bacterial cells.

S. aureus [11] = assay: Scanning electron microscopy of treated bacteria; type: cell-based, Staphylococcus aureus; settings: 8 h at 37 °C
Description: as §4

## CC1(C)S[C@@H]2[C@H](NC(=O)[C@H](N)c3ccccc3)C(=O)N2[C@H]1C(=O)O [Ampicillin]
[1]
  bacterial growth, OD600 over time (in words): remained stable
E. coli [2]
  biofilm formation inhibition rate: approximately 98%

## NC[C@H]1O[C@H](O[C@H]2[C@H](O)[C@@H](O[C@H]3O[C@H](CO)[C@@H](O)[C@H](N)[C@H]3O)[C@H](N)C[C@@H]2N)[C@H](O)[C@@H](O)[C@@H]1O [kanamycin, Kanamycin]
[3]
  bacterial growth, OD600 over time (in words): grew well
[1]
  bacterial growth, OD600 over time (in words): remained stable
E. coli [4]
  membrane permeabilization, NPN fluorescence (in words): did not show any membrane perturbation effect
S. aureus [5]
  membrane permeabilization, NPN fluorescence (in words): did not show any membrane perturbation effect
E. coli [2]
  biofilm formation inhibition rate: 75%

## phenylalanine (F)-lysine (K)-phenylalanine (F)-Leucine (L)-polyamidoamine generation 2 (PAMAM G2) [FKFL-G2]
[6]
  Critical aggregation concentration (CAC): 31.03 µM
[7]; concentration 42.3 µM
  Diameter: 158.33 ± 12.59
  Polydispersity (PDI): 0.628 ± 0.14
  Zeta Potential: 29.63 ± 6.51
[7]; concentration 84.6 µM
  Diameter: 109.83 ± 17.54
  Polydispersity (PDI): 0.459 ± 0.18
  Zeta Potential: 35.5 ± 6.0
[7]; concentration 169.2 µM
  Diameter: 98.45 ± 6.95
  Polydispersity (PDI): 0.475 ± 0.03
  Zeta Potential: 38.23 ± 5.74
NIH3T3 cells; 8.46 µM
  cell viability: about 83%
NIH3T3 cells; 16.9 µM
  cell viability: ~48%
[1]
  bacterial growth, OD600 over time (in words): decreased over time
E. coli [8]
  colony formation (in words): strong antibacterial effect
S. aureus [9]
  colony formation (in words): strong antibacterial effect
E. coli [4]
  membrane permeabilization, NPN fluorescence (in words): higher fluorescence than PAMAM G2
S. aureus [5]
  membrane permeabilization, NPN fluorescence (in words): higher fluorescence than PAMAM G2
E. coli [2]
  biofilm formation inhibition rate: approximately 98%
E. coli [10]
  cell density in FE-SEM images (in words): lowest
S. aureus [11]
  cell density in FE-SEM images (in words): lowest

From paper PMC10053621 (Pharmaceutics, 2023)
